# Reference: US8796256B2 (Janssen Pharmaceutica NV, priority 2010, dated 2014)
# Molecular target: T1, ERR1 (also known as ERR-α or ERR-1) (Homo sapiens, UniProt P11474)
# T1 sequence (P11474 193-421 limits assumed): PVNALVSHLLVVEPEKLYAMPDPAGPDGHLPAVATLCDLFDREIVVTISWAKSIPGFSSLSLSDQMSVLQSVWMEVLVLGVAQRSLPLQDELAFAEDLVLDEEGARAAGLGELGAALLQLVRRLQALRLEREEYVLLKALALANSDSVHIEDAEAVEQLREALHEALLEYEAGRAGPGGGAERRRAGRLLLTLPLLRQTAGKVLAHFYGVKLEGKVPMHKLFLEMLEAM
# Experiment: TR-FRET assay (disruption of co-activator peptide binding to ERR1 LBD)
# Format: biochemical
# Conditions: 6 nM 6His-ERR1LBD, 6 nM GST-SRC-2 peptide; average of 3 independent experiments
# Procedure, shortened: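 His-tagged ERR1 ligand-binding domain and GST-labelled SRC-2 peptide, each 6 nM, equilibrated at 25° C for 4-18 h in Tris pH 8/Hepes/KCl/DTT/delipidated BSA buffer. Compound-induced loss of co-activator binding read as Eu cryptate→XL665 energy transfer; values from hyperbolic curve fits averaged over 3 independent runs.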
row,EC50 [nM],SMILES
1,50,"CN1CCN(CCCN2C(=O)S/C(=C\c3ccc4c(ccn4Cc4ccc(Cl)cc4C(F)(F)F)c3)C2=O)CC1 [Compound 245, (5Z)-5-[(1-{[4-Chloro-2-(trifluoromethyl)phenyl]methyl}-1H-indol-5-yl)methylidene]-3-[3-(4-methylpiperazin-1-yl)propyl]-1,3-thiazolidine-2,4-dione]"
2,500,"CN(C)CCN1C(=O)S/C(=C\c2ccc3c(ccn3Cc3ccc(C#N)cc3C(F)(F)F)c2)C1=O [Compound 246, 4-({5-[(Z)-{3-[2-(Dimethylamino)ethyl]-2,4-dioxo-1,3-thiazolidin-5-ylidene}methyl]-1H-indol-1-yl}methyl)-3-(trifluoromethyl)benzonitrile]"
3,300,"CN(C)CCCN1C(=O)S/C(=C\c2ccc3c(ccn3Cc3ccc(C#N)cc3C(F)(F)F)c2)C1=O [Compound 247, 4-({5-[(Z)-{3-[3-(Dimethylamino)propyl]-2,4-dioxo-1,3-thiazolidin-5-ylidene}methyl]-1H-indol-1-yl}methyl)-3-(trifluoromethyl)benzonitrile]"
4,290,"O=C(O)[C@H]1CCCN1CCN1C(=O)S/C(=C\c2ccc3c(ccn3Cc3ccc(C(F)(F)F)cc3C(F)(F)F)c2)C1=O [Compound 248, 1-{2-[(5Z)-5-({1-[2,4-Bis(trifluoromethyl)benzyl]-1H-indol-5-yl}methylidene)-2,4-dioxo-1,3-thiazolidin-3-yl]ethyl}-D-proline]"
5,350,"O=C1S/C(=C\c2ccc3c(ccn3Cc3ccc(F)cc3C(F)(F)F)c2)C(=O)N1CCN1CCOCC1 [Compound 249, (5Z)-5-[(1-{[4-Fluoro-2-(trifluoromethyl)phenyl]methyl}-1H-indol-5-yl)methylidene]-3-(2-morpholin-4-ylethyl)-1,3-thiazolidine-2,4-dione]"
6,200,"CN(C)CCN1C(=O)S/C(=C\c2ccc3c(ccn3Cc3ccc(F)cc3C(F)(F)F)c2)C1=O [Compound 250, (5Z)-3-[2-(Dimethylamino)ethyl]-5-[(1-{[4-fluoro-2-(trifluoromethyl)phenyl]methyl}-1H-indol-5-yl)methylidene]-1,3-thiazolidine-2,4-dione]"
7,350,"COCCN1C(=O)S/C(=C\c2ccc3c(ccn3Cc3ccc(F)cc3C(F)(F)F)c2)C1=O [Compound 251, (5Z)-5-[(1-{[4-Fluoro-2-(trifluoromethyl)phenyl]methyl}-1H-indol-5-yl)methylidene]-3-[2-(methyloxy)ethyl]-1,3-thiazolidine-2,4-dione]"
8,100,"CN(C)CCCN1C(=O)S/C(=C\c2ccc3c(ccn3Cc3ccc(F)cc3C(F)(F)F)c2)C1=O [Compound 252, (5Z)-3-[3-(Dimethylamino)propyl]-5-[(1-{[4-fluoro-2-(trifluoromethyl)phenyl]methyl}-1H-indol-5-yl)methylidene]-1,3-thiazolidine-2,4-dione]"
9,120,"O=C(O)CN1C(=O)S/C(=C\c2ccc3c(ccn3Cc3ccc(Cl)cc3C(F)(F)F)c2)C1=O [Compound 253, [(5Z)-5-({1-[4-Chloro-2-(trifluoromethyl)benzyl]-1H-indol-5-yl}methylidene)-2,4-dioxo-1,3-thiazolidin-3-yl]acetic acid]"
10,320,"O=C1S/C(=C\c2ccc3c(ccn3Cc3ccc(Cl)cc3C(F)(F)F)c2)C(=O)N1CCN1CCOCC1 [Compound 254, (5Z)-5-({1-[4-Chloro-2-(trifluoromethyl)benzyl]-1H-indol-5-yl}methylidene)-3-(2-morpholin-4-ylethyl)-1,3-thiazolidine-2,4-dione]"
11,1020,"O=C(O)CN1C(=O)S/C(=C\c2ccc3c(ccn3Cc3ccc(F)cc3C(F)(F)F)c2)C1=O [Compound 255, [(5Z)-5-({1-[4-Fluoro-2-(trifluoromethyl)benzyl]-1H-indol-5-yl}methylidene)-2,4-dioxo-1,3-thiazolidin-3-yl]acetic acid]"
12,110,"O=C1S/C(=C\c2ccc3c(ccn3Cc3ccc(Cl)cc3C(F)(F)F)c2)C(=O)N1C[C@H]1COCCN1 [Compound 256, (5Z)-5-({1-[4-Chloro-2-(trifluoromethyl)benzyl]-1H-indol-5-yl}methylidene)-3-[(3S)-morpholin-3-ylmethyl]-1,3-thiazolidine-2,4-dione]"
13,74,"N=C(N)NOCCN1C(=O)S/C(=C\c2ccc3c(ccn3Cc3ccc(Cl)cc3C(F)(F)F)c2)C1=O [Compound 257, 1-{2-[(5Z)-5-({1-[4-Chloro-2-(trifluoromethyl)benzyl]-1H-indol-5-yl}methylidene)-2,4-dioxo-1,3-thiazolidin-3-yl]ethoxy}guanidine]"
14,24,"O=C1S/C(=C\c2ccc3c(c2)nnn3Cc2ccc(Cl)cc2C(F)(F)F)C(=O)N1CCN1CCCC1 [Compound 258, (5Z)-5-({1-[4-Chloro-2-(trifluoromethyl)benzyl]-1H-benzotriazol-5-yl}methylidene)-3-(2-pyrrolidin-1-ylmethyl)-1,3-thiazolidine-2,4-dione]"
15,22,"CCOC(=O)CN1C(=O)S/C(=C\c2ccc3c(c2)nnn3Cc2ccc(Cl)cc2C(F)(F)F)C1=O [Compound 259, Ethyl [(5Z)-5-({1-[4-chloro-2-(trifluoromethyl)benzyl]-1H-benzotriazol-5-yl}methylidene)-2,4-dioxo-1,3-thiazolidin-3-yl]acetate]"
16,124,"CCOC(=O)C1CCC(N2C(=O)S/C(=C\c3ccc4c(c3)nnn4Cc3ccc(Cl)cc3C(F)(F)F)C2=O)CC1 (centres unmarked) [Compound 261, Ethyl 4-[(5Z)-5-({1-[4-chloro-2-(trifluoromethyl)benzyl]-1H-benzotriazol-5-yl}methylidene)-2,4-dioxo-1,3-thiazolidin-3-yl]cyclohexanecarboxylate]"
17,24,"O=C1S/C(=C\c2ccc3c(c2)nnn3Cc2ccc(Cl)cc2C(F)(F)F)C(=O)N1Cc1c[nH]nn1 [Compound 262, (5Z)-5-({1-[4-Chloro-2-(trifluoromethyl)benzyl]-1H-benzotriazol-5-yl}methylidene)-3-(1H-1,2,3-triazol-4-ylmethyl)-1,3-thiazolidine-2,4-dione]"
18,16,"Cc1nc(CN2C(=O)S/C(=C\c3ccc4c(c3)nnn4Cc3ccc(Cl)cc3C(F)(F)F)C2=O)n[nH]1 [Compound 263, (5Z)-5-({1-[4-Chloro-2-(trifluoromethyl)benzyl]-1H-benzotriazol-5-yl}methylidene)-3-[(5-methyl-1H-1,2,4-triazol-3-yl)methyl]-1,3-thiazolidine-2,4-dione]"
19,16,"O=C1S/C(=C\c2ccc3c(c2)nnn3Cc2ccc(Cl)cc2C(F)(F)F)C(=O)N1Cc1nc[nH]n1 [Compound 264, (5Z)-5-({1-[4-Chloro-2-(trifluoromethyl)benzyl]-1H-benzotriazol-5-yl}methylidene)-3-(1H-1,2,4-triazol-3-ylmethyl)-1,3-thiazolidine-2,4-dione]"
20,40,"O=C1S/C(=C\c2ccc3c(c2)nnn3Cc2ccc(Cl)cc2C(F)(F)F)C(=O)N1Cc1nnn[nH]1 [Compound 265, (5Z)-5-({1-[4-Chloro-2-(trifluoromethyl)benzyl]-1H-benzotriazol-5-yl}methylidene)-3-(1H-tetrazol-5-ylmethyl)-1,3-thiazolidine-2,4-dione]"
21,29,"O=C(O)C1CCC(N2C(=O)S/C(=C\c3ccc4c(c3)nnn4Cc3ccc(Cl)cc3C(F)(F)F)C2=O)CC1 (centres unmarked) [Compound 266, 4-[(5Z)-5-({1-[4-Chloro-2-(trifluoromethyl)benzyl]-1H-benzotriazol-5-yl}methylidene)-2,4-dioxo-1,3-thiazolidin-3-yl]cyclohexanecarboxylic acid]"
22,11,"O=C1S/C(=C\c2ccc3c(c2)nnn3Cc2ccc(Cl)cc2C(F)(F)F)C(=O)N1C[C@H]1COCCN1 [Compound 267, (5Z)-5-({1-[4-Chloro-2-(trifluoromethyl)benzyl]-1H-benzotriazol-5-yl}methylidene)-3-[(3S)-morpholin-3-ylmethyl]-1,3-thiazolidine-2,4-dione]"
23,46,"O=C(CN1C(=O)S/C(=C\c2ccc3c(c2)nnn3Cc2ccc(Cl)cc2C(F)(F)F)C1=O)NS(=O)(=O)N1CCCC1 [Compound 268, 2-[(5Z)-5-({1-[4-Chloro-2-(trifluoromethyl)benzyl]-1H-benzotriazol-5-yl}methylidene)-2,4-dioxo-1,3-thiazolidin-3-yl]-N-(pyrrolidin-1-ylsulfonyl)acetamide]"
24,361,"O=C1S/C(=C\c2ccc3c(cnn3Cc3ccc(Cl)cc3C(F)(F)F)c2)C(=O)N1CCN1CCN[C@@H](CO)C1 [Compound 282, (5Z)-5-({1-[4-Chloro-2-(trifluoromethyl)benzyl]-1H-indazol-5-yl}methylidene)-3-{2-[(3R)-3-(hydroxymethyl)piperazin-1-yl]ethyl}-1,3-thiazolidine-2,4-dione]"
25,527,"O=C1S/C(=C\c2ccc3c(cnn3Cc3ccc(Cl)cc3C(F)(F)F)c2)C(=O)N1CCN1CCC(C(O)CO)CC1 (centres unmarked) [Compound 283, (5Z)-5-({1-[4-Chloro-2-(trifluoromethyl)benzyl]-1H-indazol-5-yl}methylidene)-3-{2-[4-(1,2-dihydroxyethyl)piperidin-1-yl]ethyl}-1,3-thiazolidine-2,4-dione]"
26,129,"N[C@H]1CC[C@H](CN2C(=O)S/C(=C\c3ccc4c(cnn4Cc4ccc(Cl)cc4C(F)(F)F)c3)C2=O)CC1 [Compound 284, (5Z)-3-[(trans-4-Aminocyclohexyl)methyl]-5-({1-[4-chloro-2-(trifluoromethyl)benzyl]-1H-indazol-5-yl}methylidene)-1,3-thiazolidine-2,4-dione]"
